Laboratory results as given in US9163018B2, “Method of treatment of age-related macular degeneration (AMD)” (Prana Biotechnology Limited, priority 2006, dated 2015).
Read-outs that look alike come from different tables or passages of the source.

How the values were obtained:
[1] = target: T1, Aβ 1-42 (Homo sapiens, UniProt P05067); test: Fluorometric H2O2 assay (inhibition of Abeta H2O2 production); assay type: biochemical
T1 construct: The reaction solutions contained Aβ 1-42 at concentrations
Method in brief: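 Reactions in PBS pH 7.4 at 37 C for 60 min, containing Aβ, copper and test compound. H2O2 output read as fluorescence of HRP-coupled deacetylated DCF. Fluorescence converted to H2O2 concentration via H2O2 standards.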

[2] = test system: primary cortical neuronal cultured cells; test: Test compound cytotoxicity, MTS assay, primary cortical neuronal cultures; assay type: cell-based, mouse; conditions: for Cytotox (% viable) Neuronal cells at 1 μM: 1 μM test compound; for Cytotox (% viable) Neuronal cells at 10 μM: 10 μM test compound
Method in brief: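 Primary cortical neurons were cultured five days in Neurobasal/B27, then exposed on day six to compounds (from 2.5 mM DMSO stocks) in medium minus antioxidants, in triplicate for 4 days at 37° C. Viability was measured by MTS, 2 h at 37° C, absorbance at 560 nm.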

[3] = test system: Abeta in extract of post-mortem human AD brain tissue; test: BAS: human brain amyloid solubilization assay; assay type: biochemical
Procedure: Assay 5. Human Brain Amyloid Solubilization Assay
This assay was performed in order to assess the ability of a test compound to mobilise Aβ, as an example form of amyloid, from the insoluble to the soluble phase of an extract of tissue from post mortem human AD brain.
Up to 0.5 g of plaque-bearing cortex without meninges was homogenized using a DIAX 900 homogenizer (Hendolph and Co, Kelheim, Germany) or other suitable device for three 30-second periods at full speed in 2 ml of ice-cold phosphate-buffered saline, pH 7.4. To obtain the phosphate-buffered saline-extractable fraction, the homogenate was centrifuged at 100,000×g for 30 min and the supernatant removed. Alternatively, the tissue was freeze dried then pulverized to form a powder which was then weighed out into aliquots for extraction as above. Supernatant, either freeze-dried and resuspended or in unconcentrated form, was dissolved in 200 μl of Tris-Tricine sodium dodecyl sulfate (SDS) sample buffer pH 8.3 containing 8% SDS, 10% 2-mercaptoethanol. Aliquots (10 μl) were then boiled for 10 minutes before SDS-polyacrylamide gel electrophoresis. The insoluble fraction of the cortical samples was obtained by resuspending the initial pelleted sample in 1 ml of phosphate-buffered saline, A 50-μl aliquot of this suspension was then boiled in […] of sample buffer as above.
Tris-Tricine polyacrylamide gel electrophoresis was performed by loading appropriately diluted samples on to 10% to 20% gradient gels (Novex, San Diego, Calif.) followed by transfer on to 0.2-μm nitrocellulose membrane (Bio-Rad, Hercules, Calif.). Aβ was detected by using monoclonal antibody W02, which detects residues 5 through 8, […] (or another suitable antibody) in conjunction with horseradish peroxidase-conjugated rabbit anti-mouse IgG (Dako, Denmark), and visualized by using enhanced chemiluminescence (eg ECL; Amersham Life Science, Buckinghamshire, UK). Each gel included three lanes containing 0.5, 1, and 2 ng of synthetic Aβ40 (Keck Laboratory, Yale University, New Haven, Conn.) as reference standards.
Blot films were scanned by using a suitable imaging system such as the UVP gel documentation system, and densitometry performed using suitable software, eg UVP Labworks. The dynamic range of the film/scanner was determined by using a step tablet (No. 911ST600, Kodak, Rochester N.Y.), a calibrated film exposed by the manufacturer to provided steps of known increasing intensity. The quantifiable range of signal intensity for densitometric analysis of the mono- and dimeric Aβ bands was based on the comparison with a curve obtained by scanning and densitometry of the step tablet.
All samples were analyzed at least twice, and gel loadings and dilutions were adjusted to fit within the quantifiable region of the standard curve. The proportion of ‘soluble’ to ‘insoluble’ Aβ may be used to determine the efficiency of extraction of a test compound compared with the efficiency of a known compound. The insoluble Aβ being comprised of the pelletable fraction derived from the insoluble amyloid plaque from the above cortical samples and the soluble fraction comprising monomeric and/or oligomeric soluble Aβ.

[4] = target: T2, Abeta:Zn (25:50 μM) Synthetic Aggregations (Homo sapiens, UniProt P05067); test: Disaggregation of Abeta:Zn synthetic aggregates (ThT fluorescence); assay type: biochemical; conditions: for Disaggregation % Aggregate reduction at 5 μM: 5 μM test compound
T2 construct: PB Compound Mediated Dissolution of Aggregated Abeta 1-42; purchased Keck Laboratory, Yale University School of Medicine
Procedure: PB Compound Mediated Dissolution of Aggregated Abeta 1-42
Abeta1-42, is available from the Keck Laboratory, Yale University School of Medicine. PBS (pH 6.6): Sigma Cat# D-8662. Zn(ZnCl2): BDH Cat#100884E. (Dissolved in water in 1 mM concentration) DMSO: Ajax Cat#2225. Thioflavin T: Sigma Cat# T-3516. (Dissolved in water in 1 mM concentration)
By way of example of an amyloid composition, Abeta is dissolved in distilled water and peptide concentration is assessed by measured absorption at 214 nm in UV spectrometer. An aggregation reactive mixture (per one concentration of one testing compound) is set us as follows: Abeta: 25 μM, ZnCl2 50 μM, ThT 50 μM, PBS to make up to 500 μl. The tube is wrapped with foil and incubated at 37 degrees by rotation for 24 hours. A serial dilution of each test compound is made up in DMSO, for example: 100 μM, 500 μM, 1000 μM, 2500 μM and 5000 μM. The final concentrations are 1, 5, 10, 25 and 50 μM, 5 μl of each of these compounds is placed in a centrifuge tube and 5 μl of DMSO is added to both negative and positive control tubes. 495 μl of aggregates (after 24 hours incubation) is added to the centrifuge tube. The negative control is PBS plus ZnCl2 and ThT and DMSO. The positive control is aggregates plus DMSO. The tubes are incubated at 37 degrees for further 2 hours with rotation. Samples are measured for ThT fluorescence using an LS55 (Perkin Elmer) fluorimeter in a cuvette (500 μl volume). The excitation wavelength is 450 nm and the emission wavelength is 480 nm. Data are analyzed using graph pad prism program. The tested compounds included so called “PB” compounds.

[5] = Toxicity, visual observations in mice; conditions: 30 mg/kg; duration and visual observations
[6] = Mice plasma concentration after oral dose; assay type: in vivo; conditions: for Mice plasma concentration: 30 min to 4 h after single or repeat oral dose of 30 mg/kg
[7] = test system: M17 human neuroblastoma cells; test: Cytotoxicity, M17 human neuroblastoma cells; assay type: cell-based; conditions: for Cytotox (% viable) M17 cells at 1 μM: 1 μM test compound; for Cytotox (% viable) M17 cells at 10 μM: 10 μM test compound
Procedure: Assay 3. MTS Assay for Cell Viability
Cell viability is determined using the MTS assay. Culture medium is replaced with fresh neurobasal medium plus B27 supplements minus antioxidants. 1/10th volume MTS solution (Cell Titre 96 Aqueous One, Promega Corporation) and incubated at 37° C., 2 hrs. 200 microliter aliquots are measured with a spectrophotometer at 560 nm.

[8] = concentration required to inhibit 50% of Abeta H2O2 production, read-out: H2O2 IC50
[9] = max effect across the concentration range, referenced to baseline PBS

T2 sequence (P05067 672-713 limits assumed): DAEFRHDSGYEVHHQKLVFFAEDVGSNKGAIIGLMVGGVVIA
T1 sequence (P05067 672-713 limits assumed): as above

Oc1cccc2cccnc12 [PB 42]
IC50 [1]: 0.7 µM
Cytotox (% viable) Neuronal cells at 1 μM [2]: 93%
Cytotox (% viable) Neuronal cells at 10 μM [2]: 36%
BAS max effect [3]: BAS: 227% (1 μM- 100 μM)
Disaggregation EC50 ([4]; Abeta:Zn 25:50 μM aggregates): Inactive

Oc1c(Cl)cc(Cl)c2cccnc12 [PB 45]
IC50 [1, 8]: 0.4 µM
Cytotox (% viable) Neuronal cells at 1 μM [2]: 98%
Cytotox (% viable) Neuronal cells at 10 μM [2]: 75%
BAS max effect [3, 9]: 387%
Disaggregation % Aggregate reduction at 5 μM [4]: 36.1%
EC50 ([4]; Abeta:Zn 25:50 μM aggregates): 8.5 µM

Oc1c(Br)cc(Br)c2cccnc12 [PB 47]
IC50 [1, 8]: 0.5 µM
Cytotox (% viable) Neuronal cells at 1 μM [2]: 100%
Cytotox (% viable) Neuronal cells at 10 μM [2]: 94%
BAS max effect [3, 9]: 412%
Disaggregation % Aggregate reduction at 5 μM [4]: 50%
EC50 ([4]; Abeta:Zn 25:50 μM aggregates): 5 µM

Cc1ccccc1-c1cc(I)c(O)c2ncccc12 [PB 861]
IC50 [1, 8]: < 0.91 µM
Cytotox (% viable) Neuronal cells at 1 μM [2]: 99%
Cytotox (% viable) Neuronal cells at 10 μM [2]: 38%
BAS max effect [3, 9]: 439%
Disaggregation % Aggregate reduction at 5 μM [4]: 31.4%

NCc1ccc2cccc(O)c2n1 [PB 968]
IC50 [1, 8]: 0.26 µM
Cytotox (% viable) Neuronal cells at 1 μM [2]: 101%
Cytotox (% viable) Neuronal cells at 10 μM [2]: 97%
BAS max effect [3, 9]: 390%
Disaggregation % Aggregate reduction at 5 μM [4]: 31.6%
EC50 ([4]; Abeta:Zn 25:50 μM aggregates): 16.3 µM

Oc1cccc2ccc(-c3ccccn3)nc12 [PB 1006]
IC50 [1, 8]: 0.53 µM
Cytotox (% viable) Neuronal cells at 1 μM [2]: 107%
Cytotox (% viable) Neuronal cells at 10 μM [2]: 75%
BAS max effect [3, 9]: 463%
Disaggregation % Aggregate reduction at 5 μM [4]: 49.5%
EC50 ([4]; Abeta:Zn 25:50 μM aggregates): 5.27 µM

O=c1c(-c2ccc(Cl)cc2)cnc2c(O)c(I)ccn12 [PB 1063]
Cytotox (% viable) Neuronal cells at 1 μM [2]: 41%
Cytotox (% viable) Neuronal cells at 10 μM [2]: 33%
Toxicity at 30 mg/kg [5]: 10 days, mild toxic signs
Mice plasma concentration [6]: Up to 450 ng/ mL in mice ng/mL
Disaggregation % Aggregate reduction at 5 μM [4]: 40.5%
EC50 ([4]; Abeta:Zn 25:50 μM aggregates): 19.7 µM

CN(C)Cc1cnc2c(Cl)cc(Cl)c(O)c2n1.Cl [PB 1066]
IC50 [1, 8]: > 10 µM
Cytotox (% viable) Neuronal cells at 1 μM [2]: 92%
Cytotox (% viable) Neuronal cells at 10 μM [2]: 95%
Mice plasma concentration [6]: Up to 1000 ng/mL in mice
Disaggregation % Aggregate reduction at 5 μM [4]: 35%
EC50 ([4]; Abeta:Zn 25:50 μM aggregates): > 50 µM

CCn1nccc1-n1cnc2c(O)c(Cl)cc(Cl)c2c1=O [PB 1088]
Cytotox (% viable) Neuronal cells at 1 μM [2]: 102%
Cytotox (% viable) Neuronal cells at 10 μM [2]: 94%
Toxicity at 30 mg/kg [5]: 10 days, none
Mice plasma concentration [6]: Up to 3896 ng/ mL ng/mL
Disaggregation % Aggregate reduction at 5 μM [4]: 16.4%
EC50 ([4]; Abeta:Zn 25:50 μM aggregates): > 20 µM

Cc1ccc(-n2cnc3c(O)c(Cl)cc(Cl)c3c2=O)nc1 [PB 1089]
Cytotox (% viable) Neuronal cells at 1 μM [2]: 96%
Cytotox (% viable) Neuronal cells at 10 μM [2]: 83%
Toxicity at 30 mg/kg [5]: 10 days, none
Mice plasma concentration [6]: Up to 39 ng/ mL ng/mL
Disaggregation % Aggregate reduction at 5 μM [4]: 16.4%
EC50 ([4]; Abeta:Zn 25:50 μM aggregates): > 20 µM

O=c1c2c(Cl)cc(Cl)c(O)c2ncn1CCc1ccccn1 [PB 1091]
Cytotox (% viable) Neuronal cells at 1 μM [2]: 100%
Cytotox (% viable) Neuronal cells at 10 μM [2]: 92%
Toxicity at 30 mg/kg [5]: 10 days, none
Mice plasma concentration [6]: Up to 59 ng/ mL ng/mL
Disaggregation % Aggregate reduction at 5 μM [4]: 23.4%
EC50 ([4]; Abeta:Zn 25:50 μM aggregates): > 20 µM

COc1ccc(-n2cnc3c(O)c(Cl)cc(Cl)c3c2=O)cn1 [PB 1093]
Cytotox (% viable) Neuronal cells at 1 μM [2]: 122%
Cytotox (% viable) Neuronal cells at 10 μM [2]: 93%
Toxicity at 30 mg/kg [5]: 10 days, none
Mice plasma concentration [6]: Up to 80 ng/ mL ng/mL
Disaggregation % Aggregate reduction at 5 μM [4]: 16%
EC50 ([4]; Abeta:Zn 25:50 μM aggregates): > 20 µM

CCn1cnc2c(O)c(I)ccc2c1=O [PB 1123]
IC50 [1, 8]: 0.29 µM
Toxicity at 30 mg/kg [5]: 10 days, none
Disaggregation % Aggregate reduction at 5 μM [4]: 25%
EC50 ([4]; Abeta:Zn 25:50 μM aggregates): 0.91 µM

CCCCc1cnc2c(O)cccn2c1=O [PB 1144]
IC50 [1, 8]: 0.32 µM
Toxicity at 30 mg/kg [5]: 10 days, none
Cytotox (% viable) M17 cells at 1 μM [7]: 73.6%
Cytotox (% viable) M17 cells at 10 μM [7]: 37%
Disaggregation % Aggregate reduction at 5 μM [4]: 15.5%
EC50 ([4]; Abeta:Zn 25:50 μM aggregates): 9.1 µM

CN(C)Cc1ccc2c(Cl)cc(I)c(O)c2n1 [PB 1177]
IC50 [1, 8]: 0.29 µM
Toxicity at 30 mg/kg [5]: 1 day, 3/4 deaths
Cytotox (% viable) M17 cells at 1 μM [7]: 97.9%
Cytotox (% viable) M17 cells at 10 μM [7]: 24.4%
Disaggregation % Aggregate reduction at 5 μM [4]: 79%
EC50 ([4]; Abeta:Zn 25:50 μM aggregates): 2.4 µM

CCc1c(O)c(O)cc[n+]1CC.[Cl-] [PB 1270]
Toxicity at 30 mg/kg [5]: 10 days, none
Mice plasma concentration at 120 mg/kg ([6]; 120 mg/kg): ≤ 4455 ng/mL
Mice plasma concentration [6]: ≤ 493.7 ng/mL
Cytotox (% viable) M17 cells at 1 μM [7]: 102.8%
Cytotox (% viable) M17 cells at 10 μM [7]: 108.3%
